Molecules are shown by their SMILES.

The values below come from patent US20070254882A1, “Sulfamide Derivatives and Pharmaceutical Composition for Upregulation of Lipid Metabolism Comprising Same” (CRYSTAL GENOMICS, INC., priority 2004, published 2007).

Assay [1] has as its target T1, human PPAR α (Homo sapiens, UniProt Q07869).
T1 construct: expressed in transfected cells; host or cells: HepG2 (ATCC HB-8065) or 293T cells (ATCC CRL-1573)
T1 sequence (Q07869 239-466 limits assumed): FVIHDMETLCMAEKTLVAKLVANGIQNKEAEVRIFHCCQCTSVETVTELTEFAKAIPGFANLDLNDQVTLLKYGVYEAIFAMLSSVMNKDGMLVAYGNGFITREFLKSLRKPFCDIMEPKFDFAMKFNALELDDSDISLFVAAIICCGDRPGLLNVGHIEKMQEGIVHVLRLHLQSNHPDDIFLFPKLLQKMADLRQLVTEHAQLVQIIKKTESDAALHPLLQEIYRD
Briefly: Exogeneous PPAR α agonist assay (GAL4 DNA binding domain/PPAR α ligand binding domain, luciferase) in HepG2 cells. It counts as cell-based. Conditions: 25 μM compound, 48 hours, luciferase activity increase relative to the control. The method, then: Step 1) Exogeneous PPAR α Agonist Assay
Cross-activation assay of the compounds of Examples 1 to 134 against human PPAR α was carried out using a DNA construct of PPAR α including its ligand binding domain and GAL4 DNA binding domain (Sher et al., Biochemistry 32, 5598-5604, 1993) to analyze whether any of the compounds binds to the ligand binding domain of PPAR α expressed by the construct to affect the PPAR α activity. When the GAL4 DNA binding domainm which is fused with PPAR α ligand binding domain, binds to UAS (upstream activation sequence) of firefly-luciferase, the luciferase is expressed. Therefore, the effect of each of the compounds of Examples on PPAR α activation can be evaluated by analyzing the activation of luciferase.
Specifically, 2×10^4 of HepG2 (ATCC HB-8065) or 293T cells (ATCC CRL-1573) were aliquotted into each well of a 96-well plate and cultured for overnight at 37° C. in a CO2 incubator (culture condition: DMEM, 10% FBS and 1% antibiotics).
The transformation of PPAR α DNA was traced as follows. First, a mixture of the following ingredients in amounts per well; Solution A (Promega) containing 50 ng of full length human PPAR α DNA, 50 ng of firefly-luciferase construct, 5 ng of Renilla-luciferase construct, 1.0 μl of PLUS™ reagent, and 8.3 μl of a serum-free medium containing no antibiotics; was prepared and kept at room temperature for 15 min. Solution B, which contained 0.5 μl of Lipofectamine™ reagent and 9.5 μl of serum-free medium without antibiotics per well, and Solution C, which contained 50 μl of serum-free medium per well), were prepared. Solutions A, B and C were mixed together to prepare lipofectamin-DNA complex, and the mixture was kept at room temperature for 15 min. Single layer of cells on each well of a 96-well plate were washed with serum-free DMEM, 70 μl of lipofectamine-DNA complex prepared above was added thereto, the plate was incubated at 37° C. in a 5% CO2 incubator for 3 hours to transform the cells, and […] of a diluted solution of each of the compounds of Examples 1 to 134 per well was added to each well to a final concentration 25 μM, and incubated at 37° C. in a CO2 incubator for 48 hours. Then, the medium was removed, 50 μl of passive lysis buffer (Promega) was added thereto, and the plate was shook at room temperature for 20 min to lysis cells. 40 μl of Luciferase Assay reagent of Dual Luciferase Kit […] per 20 μl of cell lysis buffer was added to the plate, followed by reacting at 20° C. for 8 seconds, and 40 μl of Stop & Glo reagent (Promega) as a stop solution was added thereto to quench the reaction. The luminescence intensities of F-luciferase and R-luciferase were measured with MicroLumat Plus (Berthord Technology).

Assay [2] concerns the target T1, human PPAR α. The assay can be described thus: Exogeneous PPAR α agonist assay (GAL4 DNA binding domain/PPAR α ligand binding domain, luciferase) in 293T cells. The assay is classed as cell-based. Also noted: scale not given here. Conditions: 25 μM compound, 48 hours, luciferase activity increase relative to the control. Summed up:
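HepG2 or 293T cells (2×10^4/well) lipofectamine-transfected 3 hours with PPAR α, UAS firefly-luciferase and Renilla-luciferase constructs. Compounds then added at 25 μM final and incubated 48 hours at 37° C. PPAR α activation measured as dual firefly/Renilla luciferase luminescence.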

Consider `Cc1oc(-c2ccc(C(F)(F)F)cc2)nc1CCOc1cccc(CN(CC(=O)O)S(=O)(=O)N2CCCCC2)c1` [Example 71, [N-(piperidinyl)sulfonyl-N-[3-[2-[2-(4-trifluoromethylphenyl)-5-methyloxazol-4-yl]ethoxy]benzyl]amino]acetic acid], for which the “Activity at 25 μM Step 1 HepG2 cell” value on human PPAR α [1] is listed as 44. On human PPAR α [2], the “Activity at 25 μM Step 1 293T cell” value is listed as 2.
For `CN(c1ccc(Cl)cc1)S(=O)(=O)N(CC(=O)O)Cc1ccc(OCCc2coc(-c3ccccc3)n2)cc1` [Example 133, [N—[[N-(4-chlorophenyl)-N-methyl]amino]sulfonyl-N-[4-[(2-phenyloxazol-4-yl)ethoxy]benzyl]amino]acetic acid] the same measures were 34 and 4.
For `Cc1ccc(-c2nc(COc3cccc(C(C)N(CC(=O)O)S(=O)(=O)N(C)C(C)C)c3)c(C)o2)cc1` (stereo not drawn) [Example 129, [N—(N-isopropyl-N-methylamino)sulfonyl-N-[1-[[3-(5-methyl-2-p-tolyloxazol-4-yl)methoxy]phenyl]ethyl]amino]acetic acid] the same measures were 43 and 3.
The corresponding values for `C#CCN(C)S(=O)(=O)N(CC(=O)O)Cc1cccc(OCc2nc(-c3ccc(C(F)(F)F)cc3)oc2C)c1` [Example 10, [N—(N-methyl-N-propargylamino)sulfonyl-N-[3-[[2-(4-trifluoromethylphenyl)-5-methyloxazol-4-yl]methoxy]benzyl]amino]acetic acid] are 45 and 3.
For the compound `CCN(CC)S(=O)(=O)N(CC(=O)O)Cc1cccc(OCCc2nc(-c3ccc(C(F)(F)F)cc3)oc2C)c1` [Example 67, [N—(N,N-diethylamino)sulfonyl-N-[3-[2-[2-(4-trifluoromethylphenyl)-5-methyloxazol-4-yl]ethoxy]benzyl]amino]acetic acid], on human PPAR α [1], the “Activity at 25 μM Step 1 HepG2 cell” value is on record as 50. At human PPAR α [2], the “Activity at 25 μM Step 1 293T cell” value came to 2.
The corresponding values for `Cc1ccc(-c2nc(CCOc3ccc(CN(CC(=O)O)S(=O)(=O)N(C)C(C)C)cc3)c(C)o2)cc1` [Example 102, [N—(N-isopropyl-N-methylamino)sulfonyl-N-[4-[2-[2-(4-methylphenyl)-5-methyloxazol-4-yl]ethoxy]benzyl]amino]acetic acid] are 46 and 4.
For `CCN(CC)S(=O)(=O)N(CC(=O)O)Cc1ccc(OCCc2nc(-c3ccc(C)cc3)oc2C)cc1` [Example 101, [N—(N,N-diethylamino)sulfonyl-N-[4-[2-[2-(4-methylphenyl)-5-methyloxazol-4-yl]ethoxy]benzyl]amino]acetic acid] the same measures were 45 and 4.
For `Cc1ccc(-c2nc(COc3cccc(CN([C@@H](C)C(=O)O)S(=O)(=O)N(C)C)c3)c(C)o2)cc1` [Example 124, (S)-2-[N—(N,N-dimethylamino)sulfonyl-N-[3-[(5-methyl-2-p-tolyloxazol-4-yl)methoxy]benzyl]amino]propionic acid] the same measures were 40 and 5.
As for `CCN(CC)S(=O)(=O)N(CC(=O)O)Cc1cccc(OCc2nc(-c3ccc(C(F)(F)F)cc3)oc2C)c1` [Example 7, [N—(N,N-diethylamino)sulfonyl-N-[3-[[2-(4-trifluoromethylphenyl)-5-methyloxazol-4-yl]methoxy]benzyl]amino]acetic acid], the “Activity at 25 μM Step 1 HepG2 cell” value on human PPAR α [1] was found to be 54. The “Activity at 25 μM Step 1 293T cell” value at human PPAR α [2] is recorded as 3.
On to `Cc1ccc(-c2nc(CCOc3cccc(CN(CC(=O)O)S(=O)(=O)N(C)C(C)C)c3)c(C)o2)cc1` [Example 64, [N—(N-isopropyl-N-methylamino)sulfonyl-N-[3-[2-[2-(4-methylphenyl)-5-methyloxazol-4-yl]ethoxy]benzyl]amino]acetic acid], for which, on human PPAR α [1], the “Activity at 25 μM Step 1 HepG2 cell” value is on record as 30. Further, on human PPAR α [2], the “Activity at 25 μM Step 1 293T cell” value is 2.
For `C=CCN(C)S(=O)(=O)N(CC(=O)O)Cc1cccc(OCc2nc(-c3ccc(C(F)(F)F)cc3)oc2C)c1` [Example 9, [N—(N-allyl-N-methylamino)sulfonyl-N-[3-[[2-(4-trifluoromethylphenyl)-5-methyloxazol-4-yl]methoxy]benzyl]amino]acetic acid] the same measures were 52 and 3.
The corresponding values for `CCN(c1cccc(C)c1)S(=O)(=O)N(CC(=O)O)Cc1cccc(OCCc2nc(-c3ccc(C(F)(F)F)cc3)oc2C)c1` [Example 80, [N—(N-ethyl-N-m-tolylamino)sulfonyl-N-[3-[2-[2-(4-trifluoromethylphenyl)-5-methyloxazol-4-yl]ethoxy]benzyl]amino]acetic acid] are 30 and 5.
Consider `C#CCN(C)S(=O)(=O)N(CC(=O)O)Cc1cccc(OCCc2nc(-c3ccc(C(F)(F)F)cc3)oc2C)c1` [Example 70, [N—(N-methyl-N-propargylamino)sulfonyl-N-[3-[2-[2-(4-trifluoromethylphenyl)-5-methyloxazol-4-yl]ethoxy]benzyl]amino]acetic acid], for which the “Activity at 25 μM Step 1 HepG2 cell” value on human PPAR α [1] turned out to be 34. Also, the “Activity at 25 μM Step 1 293T cell” value on human PPAR α [2] is 3.
Consider `Cc1ccc(-c2nc(COc3cccc(CN(CCC(=O)O)S(=O)(=O)N(C)C)c3)c(C)o2)cc1` [Example 130, 3-[N—(N,N-dimethylamino)sulfonyl-N-[3-[(5-methyl-2-p-tolyloxazol-4-yl)methoxy]benzyl]amino]propionic acid], for which the “Activity at 25 μM Step 1 HepG2 cell” value on human PPAR α [1] worked out at 36. Besides, the “Activity at 25 μM Step 1 293T cell” value at human PPAR α [2] is on record as 4.
The corresponding values for `Cc1oc(-c2ccc(C(F)(F)F)cc2)nc1CCOc1cccc(CN(CC(=O)O)S(=O)(=O)N(C)c2cccc(F)c2)c1` [Example 82, [N—[N-(3-fluorophenyl)-N-methylamino]sulfonyl-N-[3-[2-[2-(4-trifluoromethylphenyl)-5-methyloxazol-4-yl]ethoxy]benzyl]amino]acetic acid] are 26 and 2.
The corresponding values for `Cc1ccc(-c2nc(CCOc3ccc(CN(CC(=O)O)S(=O)(=O)N(C)c4cccc(F)c4)cc3)c(C)o2)cc1` [Example 113, [N—[N-(3-fluorophenyl)-N-methylamino]sulfonyl-N-[4-[2-[2-(4-methylphenyl)-5-methyloxazol-4-yl]ethoxy]benzyl]amino]acetic acid] are 29 and 4.
Regarding `Cc1ccc(-c2nc(COc3cccc(CN([C@H](C(=O)O)C(C)C)S(=O)(=O)N(C)C)c3)c(C)o2)cc1` [Example 125, (S)-3-methyl-2-[N—(N,N-dimethylamino)sulfonyl-N-[3-[(5-methyl-2-p-tolyloxazol-4-yl)methoxy]benzyl]amino]butyric acid], the “Activity at 25 μM Step 1 HepG2 cell” value on human PPAR α [1] was 22. On human PPAR α [2], the “Activity at 25 μM Step 1 293T cell” value came to 3.
For `Cc1ccc(-c2nc(COc3cccc(CN([C@H](C(=O)O)C(C)C)S(N)(=O)=O)c3)c(C)o2)cc1` [Example 2, (S)-3-methyl-2-[N-(sulfamoyl)-N-[3-[(5-methyl-2-p-tolyloxazol-4-yl)methoxy]benzyl]amino]butyric acid] the same measures were 25 and 6.
